According to patent US6541463B1, “Inhibitors of type 5 and type 3 17β-hydroxysteroid dehydrogenase and methods for their use” (Endorecherche, Inc., priority 1998, dated 2003):
Several values for one entry are separate records, joined by “and”; a condition that tells them apart may be missing. Equal values may be shown once.

These compounds were tested against T1, human type 5 17β-hydroxysteroid dehydrogenase (Homo sapiens, UniProt P42330) (assay: Inhibition of human type 5 17β-HSD activity in transfected 293 cells). Details: Table 4′; 3 · 10^−6.
T1 construct: screen again a human placental λgt11 cDNA to get the full length cDNA clone; expressed in transfected cells; host or cells: human embryonal kidney 293 cells (pCMV / pCMV-neo vector)
T1 sequence (P42330 1-323): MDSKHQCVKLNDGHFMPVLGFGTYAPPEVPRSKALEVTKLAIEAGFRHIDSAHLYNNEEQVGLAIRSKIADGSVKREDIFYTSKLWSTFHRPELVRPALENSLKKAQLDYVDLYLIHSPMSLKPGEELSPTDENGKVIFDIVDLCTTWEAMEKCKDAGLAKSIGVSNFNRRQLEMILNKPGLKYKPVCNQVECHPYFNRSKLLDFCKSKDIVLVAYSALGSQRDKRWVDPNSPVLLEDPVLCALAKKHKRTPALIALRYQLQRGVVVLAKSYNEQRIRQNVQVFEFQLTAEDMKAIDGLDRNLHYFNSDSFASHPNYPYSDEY
Assay type: cell-based
Design: Inhibition Type V 17B-HSD % Inh. At 3 · 10^−7 (second value in parentheses): concentration or dose not given beside the values
Procedure: The manner in which IC50 was determined is described in “Efficacy of the Preferred Inhibitors”. Lower numbers for IC50 are desirable.
Using a oligoprimer pair (5′-GGA-AAT-CGT-GAC-AGG-GAA-TGG-ATT-CCA-AAC-AG-3′, 5′-GGA-ATT-CTT-TAT-TGT-ATT-TCT-GGC-CTA-TGG-AGT-GAG-3′) derived from human aldoketoreductase (Qin et al., J. Steroid Biochem. Molec. Biol. 46: 673-679, 1993) and polymerase chain reaction (PCR), we have amplified from a human placental λgt11 cDNA library (Clontech Laboratories Inc., Palo Alto, Calif.) a cDNA fragment that was used as probe to screen again a human placental λgt11 cDNA to get the full length cDNA clone. The amplified cDNA fragment was purified on agarose gel and labeled with [α^32P]dCTP (Amersham Corp.) using the random primer labeling kit from Pharmacia Inc. PCR amplification reaction medium contained 50 mM KCl, 10 mM Tris-HCl, pH 8.3, 0.1% gelatin, 1 mM MgCl2, 250 μM dNTP, 0.25 μM oligonucleotide primers, and 200 ng of DNA prepared from human placental λgt11 cDNA library. The aqueous phase was overlaid with 75 μL of mineral oil to avoid evaporation. The mixture was heated at 98° C. for 5 min, following the temperature reduction to 72° C., 1 unit of Taq DNA polymerase was added. Using a DNA Thermal Cycler (Perkin-Elmer Corp.), 30 cycles of amplification were carried out using a step program (94° C., 1 min; 60° C., 1 min; and 72° C., 1 min)/cycle.
Approximately 5×10^5 recombinant phage plaques were screened with 1.5×10^6 cpm/ml of the probe. Prehybridization was performed for 4 h at 42° C. in 50% formamide, 5× Denhardt's solution (1× Denhardt's being 0.02% polyvinyl pyrrolidone, 0.02 Ficoll, 0.02 bovine serum albumin), 5×SSPE (1×SSPE being 0.18M NaCl, 10 mM NaH2PO4, pH 7.4, 1 mM EDTA), 0.1% SDS, and 100 μg/ml yeast tRNA. The probe was denatured by heating at 100° C. for 5 min, before being added to the hybridization solution at 42° C. overnight. Filters were then washed twice at room temperature in 2×SSC (1×SSC being […], pH 7.0), 0.1% SDS, and twice in 0.1×SSC, 0.1% SDS at 60° C. Positive recombinant plaques were purified by replating twice and grown in liquid culture. Phage DNA were isolated by centrifugation for 90 min at 105,000×g, and DNA was then isolated by phenol extraction and precipitation with isopropanol (Karen et al. 1987; In: Current Protocols in Molecular Biology (F. M. Ausubel, R. Brent, E. Kingston, D. D. Moore, T. G. Seidman, T. A. Smith and K. Struhl, eds), Wiley & Sons, New York, pp. 1.13.1-1.13.6).
The phage DNA were digested with EcoRI restriction enzymes and the resulting cDNA fragments were inserted into the EcoRI site downstream to the cytomegalovirus (CMV) promoter of the pCMV vector (kindly provided by Dr. Matthew, Cold Spring Harbor, N.Y., USA). Recombinant pCMV plasmids were amplified in Escherichia Coli DH5α competent cells, and were isolated by alkaline lysis procedure (Maniatis et al., In: Molecular cloning: a laboratory manual, Cold Spring Harbor Laboratory., 1982). Sequencing of double-stranded plasmid DNA was performed according to the dideoxy chain termination method (Sanger et al., PNAS 74: 5453-5467, 1977) using a T7 DNA polymerase sequencing kit (Pharmacia LKB Biotechnology). To avoid errors, all sequences were determined by sequencing both strands of the DNA. Oligonucleotide primers were synthesized in our laboratory with a 394 DNA/RNA synthesizer (Applied Biosystem).
The pCMV vector contain 576 nucleotides of the pCMV promoter (followed by 432 bp of small t intron (fragment 4713-4570) and poly adenylation signal (2825-2536)of SV40, followed by 1989 bp of the Pvu II(628)-AatII (2617) fragment from pUC 19 vector (New England Biolabs) that contains an E. Coli origin of replication and an ampicillin resistance gene for propagation in E. Coli. […]

| Compound | Inhibition Type V 17β-HSD % Inh. at 3 · 10^−6 [%] |
| --- | --- |
| CC1(C)CC[C@@]2(CC[C@H]3[C@@H]4CCc5c(cc(Br)c(O)c5Br)[C@H]4CC[C@@]32C)OC1=O [EM-1382-CS] | 86 |

Same assay, conditions: Table 4′; 3 · 10^−7

| Compound | Inhibition Type V 17β-HSD % Inh. at 3 · 10^−7 [%] |
| --- | --- |
| CC1(C)CC[C@@]2(CC[C@H]3[C@@H]4CCc5c(cc(Br)c(O)c5Br)[C@H]4CC[C@@]32C)OC1=O [EM-1382-CS] | 74 |

Same assay, conditions: Table 4′; read-out: Inhibition Type V 17β-HSD IC50

| Compound | IC50 |
| --- | --- |
| CC1(C)CCC2(CCC3C4CCc5ccccc5C4CCC32C)OC1=O (stereo not drawn) [CS-224] | 2.9 nM and 10.7 nM |
| CSCCOc1ccc2c(c1)CCC1C2CCC2(C)C1CCC21CCCC(=O)O1 [CS-242, 3-Methylthioethyloxy-1,3,5(10)-estratrien-17(R)-spiro-2′-(6′-oxo) Tetrahydropyran] | 6.6 ± 0.9 nM |
| C[C@]12CCC3c4ccc(O)cc4CCC3C1CC[C@@]21CCCC(=O)O1 (stereo partly drawn) [EM-919, 1,3,5(10)-estratrien-3-ol-17(R)-spiro-2′(6′-oxo)tetrahydropyran] | 10 ± 1.4 nM |
| CC1CCC2(CCC3C4CCc5ccccc5C4CCC32C)OC1=O (stereo not drawn) [EM-1025] | 6.1 nM and 4.3 nM |
| C[C@]12CCC3c4cc([N+](=O)[O-])c(O)cc4CCC3C1CC[C@@]21CCCC(=O)O1 (stereo partly drawn) [EM-1124, 2-Nitro-1,3,5(10)-estraetriene-3-ol-17(R)-spiro-2′-(6′-oxo)tetrahydropyran] | 3 ± 0.2 nM |
| CC1(C)CCC2(CCC3C4CCc5cc(O)c([N+](=O)[O-])cc5C4CCC32C)OC1=O (stereo not drawn) [EM-1125-CS] | 2 nM |
| CC1CCC2(CCC3C4CCc5cc(O)c([N+](=O)[O-])cc5C4CCC32C)OC1=O [EM-1126, 2-Nitro-1,3,5(10)-estratrien-3-ol-17(R)-spiro-2′-(5′-methyl-6′-oxo)tetrahydropyran] | 6 ± 1 nM |
| CC1CCC2(CCC3C4CCc5cc(O)c([N+](=O)[O-])cc5C4CCC32C)OC1=O [EM-1131, 2-Nitro-1,3,5(10)-estratrien-3-ol-17(R)-spiro-2′-(5′-methyl-6′-oxo)tetrahydropyran] | 3 nM |
| CC1(C)CC[C@@]2(CCC3C4CCc5cc(F)ccc5C4CC[C@@]32C)OC1=O (stereo partly drawn) [EM-1157-CS] | 4 nM and 10 nM |
| CC12CCC3c4ccc(F)cc4CCC3C1CCC21CCCC(=O)O1 (stereo not drawn) [EM-1170-CS] | 7 ± 1 nM |
| CCS(=O)(=O)Oc1ccc2c(c1)CCC1C2CCC2(C)C1CCC21CCC(C)(C)C(=O)O1 (stereo not drawn) [EM-1364-CS] | 17 nM |
| CC1(C)CCC2(CCC3C4CCc5cc(OS(C)(=O)=O)ccc5C4CCC32C)OC1=O (stereo not drawn) [EM-1365-CS] | 12 nM |
| COCCOc1ccc2c(c1)CCC1C2CCC2(C)C1CCC21CCC(C)(C)C(=O)O1 [EM-1368-CS, 3-Methoxyethoxy-1,3,5(10)-estratrien-17(R)-spiro-2′-(5′,5′-dimethyl-6′-oxo)-tetrahydropyran] | 21 nM |
| CCOc1ccc2c(c1)CCC1C2CC[C@@]2(C)C1CC[C@@]21CCC(C)(C)C(=O)O1 (stereo partly drawn) [EM-1369, 3-Ethoxy-1,3,5(10)-estratrien-17(R)-spiro-2′-(5′,5′-dimethyl-6′-oxo)-tetrahydropyran] | 46 nM |
| COc1ccc2c(c1)CCC1C2CCC2(C)C1CCC21CCC(C)(C)C(=O)O1 (stereo not drawn) [EM-1370] | 43 nM |
| COCCOc1cc2c(cc1Cl)C1CCC3(C)C(CCC34CCC(C)(C)C(=O)O4)C1CC2 (stereo not drawn) [EM-1371-CS] | 19 nM and 20 nM |
| COc1c(Br)cc2c(c1Br)CCC1C2CCC2(C)C1CCC21CCC(C)(C)C(=O)O1 (stereo not drawn) [EM-1385-CS] | 51 nM |
| COc1ccc2c(c1)C(=O)CC1C3CCC4(CCC(C)(C)C(=O)O4)C3(C)CCC21O (stereo not drawn) [EM-1386] | 25 nM |

Same assay, conditions: Table 5 column 2; 3.10^−6

| Compound | Inhibition Type V 17β-HSD % inh. At 3.10^−6 |
| --- | --- |
| CN1C(=O)C=C[C@]2(C)C3CC[C@@]4(C)C(CC[C@@]45CCCC(=O)O5)C3CCC12 (stereo partly drawn) [EM-1122-CS] | 95) % |

Same assay, conditions: Table 5 column 2; 3.10^−7

| Compound | Inhibition Type V 17β-HSD % inh. At 3.10^−7 |
| --- | --- |
| CN1C(=O)C=C[C@]2(C)C3CC[C@@]4(C)C(CC[C@@]45CCCC(=O)O5)C3CCC12 (stereo partly drawn) [EM-1122-CS] | (80% |

Same assay, conditions: at 3.10^−6

| Compound | Inhibition Type V 17β-HSD % Inh. |
| --- | --- |
| COC(=O)CCCC(=O)O[C@]1(C(C)=O)CC[C@H]2[C@@H]3C=C(C)C4=CC(=O)CC[C@]4(C)[C@H]3CC[C@@]21C [EM-1007, 6-Methyl-4,6-pregnadien-17α-ol-3,20-dione 4′-Carbomethoxybutyrate] | 86) % |

Same assay, conditions: at 3.10^−7

| Compound | Inhibition Type V 17β-HSD % Inh. |
| --- | --- |
| COC(=O)CCCC(=O)O[C@]1(C(C)=O)CC[C@H]2[C@@H]3C=C(C)C4=CC(=O)CC[C@]4(C)[C@H]3CC[C@@]21C [EM-1007, 6-Methyl-4,6-pregnadien-17α-ol-3,20-dione 4′-Carbomethoxybutyrate] | (81% |

Same assay, conditions: first of two concentrations, 3 · 10^−7

| Compound | Inhibition Type V 17B-HSD % Inh. At 3 · 10^−7 (first value in parentheses) |
| --- | --- |
| CC1=C[C@@H]2[C@H](CC[C@]3(C)C(=O)C4(CCCCC4)C[C@@H]23)[C@@]2(C)CCC(=O)C=C12 [EM-925] | (46% |
| C[C@]12CCC(=O)C=C1C=C[C@@H]1[C@@H]2CC[C@]2(C)C(=O)C3(CC4CC4C3)C[C@@H]12 (stereo partly drawn) [EM-1299, 4,6-Androstadien-3,17-dione-16-spirobicyclo[3′.1′.0′]-hexane] | (73% |

Same assay, conditions: read-out: Inhibition Type V 17B-HSD IC50

| Compound | IC50 [nM] |
| --- | --- |
| CC12C=CC(=O)C=C1C=CC1C2CCC2(C)C(=O)C3(CCCCC3)CC12 (stereo not drawn) [CS-204] | 94 |
| CC(=O)O[C@]1(C)C(=O)CCC2C3C=C(C)C4=CC(=O)C=C[C@]4(C)C3CC[C@@]21C (stereo partly drawn) [CS-237] | 9 ± 1 |
| CCCC(=O)O[C@]1(C)C(=O)CCC2C3C=C(C)C4=CC(=O)CC[C@]4(C)C3CC[C@@]21C (stereo partly drawn) [EM-1078] | 3.8 ± 0.6 |
| CCC[C@@H]1CC2C3C=CC4=CC(=O)CC[C@]4(C)C3CC[C@]2(C)C1=O (stereo partly drawn) [EM-1097] | 10 |
| CCC[C@]1(F)CC2C3C=CC4=CC(=O)CC[C@]4(C)C3CC[C@]2(C)C1=O (stereo partly drawn) [EM-1183] | 4.6 ± 0.4 |
| CC(C)C[C@@H]1CC2C3C=CC4=CC(=O)CC[C@]4(C)C3CC[C@]2(C)C1=O (stereo partly drawn) [EM-1273-CS] | 9 |

Same assay, conditions: read-out: Inhibition Type V 17β-HSD IC50

| Compound | IC50 [nM] |
| --- | --- |
| CCC(=O)O[C@]1(C(C)=O)CCC2C3C=C(C)C4=CC(=O)C[C@H](C)[C@]4(C)C3CC[C@@]21C (stereo partly drawn) [CS-243] | 3.5 ± 0.1 |
| CCCC(=O)OC1(C(C)=O)CCC2C3C=C(C)C4=CC(=O)CC(C)C4(C)C3CCC21C (stereo not drawn) [CS-245] | 3.2 ± 0.1 |
| CC(=O)O[C@]1(C(=O)N(C)C)CCC2C3C=C(C)C4=CC(=O)CC[C@]4(C)C3CC[C@@]21C (stereo partly drawn) [EM-1159] | 14 ± 2 |
| CC(=O)[C@@]1(OC(=O)CCCCF)CCC2C3C=C(C)C4=CC(=O)CC[C@]4(C)C3CC[C@@]21C (stereo partly drawn) [EM-1195-CS] | 4 ± 0.5 |
| COc1ccc(CC(=O)O[C@]2(C(C)=O)CCC3C4C=C(C)C5=CC(=O)C=C[C@]5(C)C4CC[C@@]32C)cc1 (stereo partly drawn) [EM-1291] | 7 ± 1 |

Same assay, conditions: second of two concentrations, 3 · 10^−7

| Compound | Inhibition Type V 17B-HSD % Inh. At 3 · 10^−7 (second value in parentheses) |
| --- | --- |
| CC1=C[C@@H]2[C@H](CC[C@]3(C)C(=O)C4(CCCCC4)C[C@@H]23)[C@@]2(C)CCC(=O)C=C12 [EM-925] | 81) % |
| C[C@]12CCC(=O)C=C1C=C[C@@H]1[C@@H]2CC[C@]2(C)C(=O)C3(CC4CC4C3)C[C@@H]12 (stereo partly drawn) [EM-1299, 4,6-Androstadien-3,17-dione-16-spirobicyclo[3′.1′.0′]-hexane] | 99) % |
